Values of other authors in patent publication US9782454B2 (LONGEVITY BIOTECH, INC., priority 2010, dated 2017).
Non-standard residues stand in square brackets, D forms with d. No end group written: not given here. dPhe(4-Cl) = N[C@H](Cc1ccc(Cl)cc1)C(=O)O

What was measured:
mouse CRF2β = mouse CRF2β (Mus musculus, UniProt Q60748); conditions: read-out: Kd for binding to mouse CRF2β; cited from earlier work
rat CRF1 receptors = biological target: T1, rat CRF1 receptors (Rattus norvegicus, UniProt P35353); conditions: read-out: Kd for binding to rat CRF1 receptors; cited from earlier work
T1 sequence (P35353 24-415): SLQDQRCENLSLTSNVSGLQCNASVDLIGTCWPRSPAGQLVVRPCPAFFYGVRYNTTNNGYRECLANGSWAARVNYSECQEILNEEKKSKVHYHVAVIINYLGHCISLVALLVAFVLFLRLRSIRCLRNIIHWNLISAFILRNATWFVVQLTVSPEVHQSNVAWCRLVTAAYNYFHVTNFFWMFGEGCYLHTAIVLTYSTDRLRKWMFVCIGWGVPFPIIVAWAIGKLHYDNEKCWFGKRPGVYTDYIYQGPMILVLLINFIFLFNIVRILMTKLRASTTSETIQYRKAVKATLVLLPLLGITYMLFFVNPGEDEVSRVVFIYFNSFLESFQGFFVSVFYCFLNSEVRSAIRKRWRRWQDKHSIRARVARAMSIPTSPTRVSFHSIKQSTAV

mCRF2β = biological target: T2, mCRF2β (Mus musculus, UniProt Q60748); conditions: cited from earlier work
T2 construct: expressed in transfected cells; host or cells: HEK-mCRF2β cells (value quoted from the literature)

neurotensin receptor = biological target: T3, neurotensin receptor (Mus musculus, UniProt O88319); conditions: read-out: IC50 for inhibition of {125I}-NT binding to neonatal mouse brain; cited from earlier work
T3 construct: from tissue; host or cells: neonatal mouse brain (value quoted from the literature)

guinea pig ileum = conditions: read-out: EC50 for contraction of guinea pig ileum; cited from earlier work
neurotensin receptors = conditions: read-out: IC50 for inhibition of {Trp11}-NT binding to rat brain receptors; cited from earlier work
14.3.3 proteins = conditions: read-out: KD, antagonist of 14.3.3 proteins; cited from earlier work
[1] = biological target: vasoactive intestinal peptide (VIP) receptor; conditions: read-out: IC50, selective VIP antagonist; cited from earlier work
glucagon receptors = glucagon receptors (Homo sapiens, UniProt P47871); conditions: cited from earlier work
secretin receptors = secretin receptors (Homo sapiens, UniProt P47872); conditions: cited from earlier work
GRF receptors = biological target: T4, GRF receptors (Homo sapiens, UniProt Q02643); conditions: cited from earlier work
T4 sequence (Q02643 23-423): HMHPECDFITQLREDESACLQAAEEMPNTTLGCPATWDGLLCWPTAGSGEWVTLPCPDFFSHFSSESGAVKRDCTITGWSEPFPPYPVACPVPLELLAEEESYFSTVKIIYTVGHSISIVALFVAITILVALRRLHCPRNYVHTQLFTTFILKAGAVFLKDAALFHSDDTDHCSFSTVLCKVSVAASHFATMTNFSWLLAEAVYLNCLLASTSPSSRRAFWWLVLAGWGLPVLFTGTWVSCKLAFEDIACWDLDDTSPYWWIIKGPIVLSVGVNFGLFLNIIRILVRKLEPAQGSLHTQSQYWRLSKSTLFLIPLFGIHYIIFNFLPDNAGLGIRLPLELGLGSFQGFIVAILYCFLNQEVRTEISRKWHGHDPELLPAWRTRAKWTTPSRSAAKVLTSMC

Chain of secretin receptors (P47872 23-440): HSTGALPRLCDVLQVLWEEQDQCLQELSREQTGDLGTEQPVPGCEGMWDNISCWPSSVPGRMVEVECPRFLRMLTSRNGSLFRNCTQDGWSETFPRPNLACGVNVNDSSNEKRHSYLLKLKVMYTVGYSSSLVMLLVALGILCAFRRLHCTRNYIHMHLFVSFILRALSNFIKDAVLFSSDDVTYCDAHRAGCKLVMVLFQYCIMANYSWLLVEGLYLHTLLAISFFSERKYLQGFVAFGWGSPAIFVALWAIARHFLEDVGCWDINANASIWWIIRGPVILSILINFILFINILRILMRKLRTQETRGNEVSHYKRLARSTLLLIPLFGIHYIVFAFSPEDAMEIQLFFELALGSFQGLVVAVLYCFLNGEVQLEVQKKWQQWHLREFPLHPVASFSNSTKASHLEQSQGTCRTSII
T3 sequence (O88319 whole entry): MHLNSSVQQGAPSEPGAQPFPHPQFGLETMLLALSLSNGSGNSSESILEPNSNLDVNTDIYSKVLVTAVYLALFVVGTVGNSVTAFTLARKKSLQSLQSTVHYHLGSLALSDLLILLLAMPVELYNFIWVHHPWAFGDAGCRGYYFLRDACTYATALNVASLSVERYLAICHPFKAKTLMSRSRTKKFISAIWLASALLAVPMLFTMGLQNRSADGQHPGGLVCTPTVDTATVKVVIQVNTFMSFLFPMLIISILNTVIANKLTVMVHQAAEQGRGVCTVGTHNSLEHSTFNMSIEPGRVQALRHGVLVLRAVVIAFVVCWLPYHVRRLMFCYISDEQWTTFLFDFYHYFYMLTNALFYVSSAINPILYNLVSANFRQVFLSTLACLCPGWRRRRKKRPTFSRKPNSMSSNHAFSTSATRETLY
Chain of mouse CRF2β (Q60748 1-431 isoform Q60748-2): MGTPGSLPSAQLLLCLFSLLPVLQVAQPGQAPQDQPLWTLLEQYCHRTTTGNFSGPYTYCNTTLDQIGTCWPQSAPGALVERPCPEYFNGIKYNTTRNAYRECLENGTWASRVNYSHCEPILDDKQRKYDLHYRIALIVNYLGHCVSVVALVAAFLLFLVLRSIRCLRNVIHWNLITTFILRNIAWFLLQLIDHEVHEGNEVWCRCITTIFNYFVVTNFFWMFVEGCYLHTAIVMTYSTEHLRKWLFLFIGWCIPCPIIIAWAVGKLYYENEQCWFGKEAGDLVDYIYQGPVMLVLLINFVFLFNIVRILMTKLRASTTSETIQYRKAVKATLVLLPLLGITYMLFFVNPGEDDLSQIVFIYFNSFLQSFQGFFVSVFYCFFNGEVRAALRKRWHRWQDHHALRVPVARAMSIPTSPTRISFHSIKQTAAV
T2 sequence (Q60748 1-431 isoform Q60748-2): as above
Chain of glucagon receptors (P47871 26-477): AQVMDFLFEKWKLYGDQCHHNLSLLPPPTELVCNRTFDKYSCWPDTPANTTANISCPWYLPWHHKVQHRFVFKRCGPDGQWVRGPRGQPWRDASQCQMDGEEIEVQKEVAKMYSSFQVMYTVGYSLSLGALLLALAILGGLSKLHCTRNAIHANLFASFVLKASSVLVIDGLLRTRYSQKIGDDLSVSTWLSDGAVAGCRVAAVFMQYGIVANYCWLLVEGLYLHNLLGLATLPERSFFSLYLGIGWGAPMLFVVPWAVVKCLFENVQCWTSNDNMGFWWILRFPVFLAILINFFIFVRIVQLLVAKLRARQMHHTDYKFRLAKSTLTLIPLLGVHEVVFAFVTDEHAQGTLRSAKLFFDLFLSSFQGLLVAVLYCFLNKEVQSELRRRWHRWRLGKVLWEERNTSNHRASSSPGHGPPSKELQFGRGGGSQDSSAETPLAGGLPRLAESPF

## Antisauvagine-30
Mouse CRF2β
  Kd: 0.0014 µM
Rat CRF1 receptors
  Kd: 0.154 µM
mCRF2β
  pA2, inhibition of sauvagine-stimulated cAMP accumulation in HEK-mCRF2β cells: sauvagine-stimulated cAMP accumulation in HEK-mCRF2β cells (pA2 = 8.49). Prevents stress-

## JMV 449 (IARRHPYFL; Kinetensin)
Neurotensin receptor
  IC50: 0.00015 µM
Guinea pig ileum
  EC50: 0.0019 µM

## Neuromedin N (rat, mouse, porcine, canine) (KIPYIL; Neuromedin N; UniProt P20068 142-147, looked up)
Neurotensin receptors
  IC50: 0.0167 µM

## R18 (RYVVLPRPVCFEKGMNYTVR; Peptide F9) [Compound R18]
14.3.3 proteins
  Kd: ~0.08 µM

## {D-p-C1-Phe6,Leu17}-VIP ([dPhe(4-Cl)]TDNYTRLRKQMAVKKYLNSILN-NH2)
[1]
  IC50: 0.126 µM
Glucagon receptors
  activity on glucagon receptors: no activity
Secretin receptors
  activity on secretin receptors: no activity
GRF receptors
  activity on GRF receptors: no activity
